# Assay results as given in patent publication US8765773B2, “Substituted hydroxamic acids and uses thereof” (Millennium Pharmaceuticals, Inc., priority 2010, dated 2014).
# Target: T1, purified human HDAC6 (Homo sapiens, UniProt Q9UBN7)
# T1 construct: purchased BPS Bioscience 5006
# T1 sequence (Q9UBN7 1-1215): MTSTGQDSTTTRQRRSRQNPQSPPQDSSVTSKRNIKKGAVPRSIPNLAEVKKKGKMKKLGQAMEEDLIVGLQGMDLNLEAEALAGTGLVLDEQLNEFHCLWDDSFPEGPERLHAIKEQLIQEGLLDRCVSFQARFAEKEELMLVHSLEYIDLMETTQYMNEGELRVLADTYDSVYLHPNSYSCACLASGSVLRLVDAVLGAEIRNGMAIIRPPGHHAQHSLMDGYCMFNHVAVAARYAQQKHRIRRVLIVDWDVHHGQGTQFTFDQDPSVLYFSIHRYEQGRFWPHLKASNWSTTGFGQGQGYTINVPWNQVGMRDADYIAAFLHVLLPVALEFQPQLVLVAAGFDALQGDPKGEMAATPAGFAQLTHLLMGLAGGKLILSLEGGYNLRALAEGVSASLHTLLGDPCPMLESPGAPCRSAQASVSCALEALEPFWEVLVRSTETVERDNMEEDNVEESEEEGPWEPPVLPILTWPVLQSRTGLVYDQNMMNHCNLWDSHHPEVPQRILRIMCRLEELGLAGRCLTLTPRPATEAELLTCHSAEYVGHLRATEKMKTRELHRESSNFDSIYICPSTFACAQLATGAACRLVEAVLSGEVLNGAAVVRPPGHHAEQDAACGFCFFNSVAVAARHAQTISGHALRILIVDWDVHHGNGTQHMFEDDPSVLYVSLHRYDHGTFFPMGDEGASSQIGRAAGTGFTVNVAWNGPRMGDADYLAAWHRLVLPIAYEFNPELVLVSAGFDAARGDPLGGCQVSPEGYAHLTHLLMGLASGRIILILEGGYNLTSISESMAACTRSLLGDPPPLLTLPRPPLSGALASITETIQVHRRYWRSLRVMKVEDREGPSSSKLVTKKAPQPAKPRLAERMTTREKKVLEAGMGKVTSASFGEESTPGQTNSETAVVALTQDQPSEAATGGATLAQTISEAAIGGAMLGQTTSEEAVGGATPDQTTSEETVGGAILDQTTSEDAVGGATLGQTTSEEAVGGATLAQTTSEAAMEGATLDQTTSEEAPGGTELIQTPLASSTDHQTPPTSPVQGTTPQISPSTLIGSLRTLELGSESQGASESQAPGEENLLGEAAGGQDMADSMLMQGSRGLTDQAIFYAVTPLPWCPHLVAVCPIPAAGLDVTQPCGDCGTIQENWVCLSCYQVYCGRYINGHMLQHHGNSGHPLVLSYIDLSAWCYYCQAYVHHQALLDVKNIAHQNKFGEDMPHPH
# Test: HDAC6 Enzyme Assay
# Format: biochemical
# Settings: compound concentration 0.37 μM, read-out: Percent Inhibition
# Description: To measure the inhibition of HDAC6 activity, purified human HDAC6 (BPS Bioscience; Cat. No. 5006) is incubated with substrate Ac-Arg-Gly-Lys(Ac)-AMC peptide (Bachem Biosciences; Cat. No. I-1925) for 1 hour at 30° C. in the presence of test compounds or vehicle DMSO control. The reaction is stopped with the HDAC inhibitor trichostatin A (Sigma; Cat. No. T8552) and the amount of Arg-Gly-Lys-AMC generated is quantitated by digestion with trypsin (Sigma; Cat. No. T1426) and subsequent measurement of the amount of AMC released using a fluorescent plate reader (Pherastar; BMG Technologies) set at Ex 340 nm and Em 460 nm. Concentration response curves are generated by calculating the fluorescence increase in test compound-treated samples relative to DMSO-treated controls, and percentage inhibition values at a single concentration or enzyme inhibition (IC50) values are determined from those curves. One skilled in the art will appreciate that the values generated either as percentage inhibition at a single concentration or IC50 values are subject to experimental variation.
row,SMILES,inhibition at 0.37 µM [%]
1,"COc1ccc(-c2cccc(Cn3cnc4ccc(C(=O)NO)cc4c3=O)c2)cn1 [Compound I-143, N-hydroxy-3-[3-(6-methoxypyridin-3-yl)benzyl]-4-oxo-3,4-dihydroquinazoline-6-carboxamide]",96.6
2,"O=C(NO)c1ccc2c(=O)n(Cc3ccc(C(F)(F)F)cc3)c(-c3ccc(Cl)cc3)nc2c1 [Compound I-134, 2-(4-chlorophenyl)-N-hydroxy-4-oxo-3-[4-(trifluoromethyl)benzyl]-3,4-dihydroquinazoline-7-carboxamide]",88.6

# Continued, values first:
row,inhibition at 0.37 µM [%],SMILES
1,98.3,"O=C(NO)c1ccc2ncn(CCc3cccc(-c4ccncc4)c3)c(=O)c2c1 [Compound I-220, N-hydroxy-4-oxo-3-[2-(3-pyridin-4-ylphenyl)ethyl]-3,4-dihydroquinazoline-6-carboxamide]"
2,97.5,"O=C(NO)c1ccc2ccn(-c3cccc(Cl)c3)c(=O)c2c1 [Compound I-179, 2-(3-chlorophenyl)-N-hydroxy-1-oxo-1,2-dihydroisoquinoline-7-carboxamide]"
3,87.2,"O=C(NO)c1ccc2ncn(CCc3cccc(-c4cccnc4)c3)c(=O)c2c1 [Compound I-331, N-hydroxy-4-oxo-3-[2-(3-pyridin-3-ylphenyl)ethyl]-3,4-dihydroquinazoline-6-carboxamide]"
4,72.5,"O=C(NO)c1ccc2ncn(CCc3cccc(-c4ccc(C(F)(F)F)cc4)c3)c(=O)c2c1 [Compound I-295, N-hydroxy-4-oxo-3-{2-[4′-(trifluoromethyl)biphenyl-3-yl]ethyl}-3,4-dihydroquinazoline-6-carboxamide]"
5,92,"CC(C)(C)C(=O)Nc1ncccc1-c1cccc(CCn2cnc3ccc(C(=O)NO)cc3c2=O)c1 [Compound I-327, 3-[2-(3-{2-[(2,2-dimethylpropanoyl)amino]pyridin-3-yl}phenyl)ethyl]-N-hydroxy-4-oxo-3,4-dihydroquinazoline-6-carboxamide]"
6,90.8,"COc1cccc(-c2cccc(Cn3cnc4ccc(C(=O)NO)cc4c3=O)c2)c1 [Compound I-281, N-hydroxy-3-[(3′-methoxybiphenyl-3-yl)methyl]-4-oxo-3,4-dihydroquinazoline-6-carboxamide]"
7,79,"O=C(NO)c1ccc2c(=O)[nH]c(-c3cccnc3)nc2c1 [Compound I-398, N-hydroxy-4-oxo-2-pyridin-3-yl-3,4-dihydroquinazoline-7-carboxamide]"

# Same assay, conditions: compound concentration 0.412 μM, read-out: Percent Inhibition
row,SMILES,inhibition at 0.412 µM [%]
1,"CC(C)n1cnc2ccc(C(=O)NO)cc2c1=O [Compound I-121, N-hydroxy-3-isopropyl-4-oxo-3,4-dihydroquinazoline-6-carboxamide]",71.9
2,"CCN(CC)c1cccc(OCCn2ccc3ccc(C(=O)NO)cc3c2=O)c1 [Compound I-159, 2-{2-[3-(diethylamino)phenoxy]ethyl}-N-hydroxy-1-oxo-1,2-dihydroisoquinoline-7-carboxamide]",91.3
3,"Cc1ccccc1OCCCn1ccc2ccc(C(=O)NO)cc2c1=O [Compound I-38, N-hydroxy-2-[3-(2-methylphenoxy)propyl]-1-oxo-1,2-dihydroisoquinoline-7-carboxamide]",96.1
4,"O=C(NO)c1ccc2c(=O)n(Cc3cccc(C(F)(F)F)c3)cnc2c1 [Compound I-16, N-hydroxy-4-oxo-3-[3-(trifluoromethyl)benzyl]-3,4-dihydroquinazoline-7-carboxamide]",95.8
5,"O=C(NO)c1ccc2c(=O)[nH]c(COc3ccc4c(c3)OCO4)nc2c1 [Compound I-66, 2-[(1,3-benzodioxol-5-yloxy)methyl]-N-hydroxy-4-oxo-3,4-dihydroquinazoline-7-carboxamide]",89.5
6,"O=C(NO)c1ccc2ccn(Cc3ccccc3F)c(=O)c2c1 [Compound I-122, 2-(2-fluorobenzyl)-N-hydroxy-1-oxo-1,2-dihydroisoquinoline-7-carboxamide]",94.6
7,"O=C(NO)c1ccc2ccn(CCCOc3cccc(OCc4ccccc4)c3)c(=O)c2c1 [Compound I-20, 2-{3-[3-(benzyloxy)phenoxy]propyl}-N-hydroxy-1-oxo-1,2-dihydroisoquinoline-7-carboxamide]",83
8,"O=C(NO)c1ccc2ccn(CCOc3ccc(C45CC6CC(CC(C6)C4)C5)cc3)c(=O)c2c1 [Compound I-161, 2-(2-{4-[1-adamantyl]phenoxy}ethyl)-N-hydroxy-1-oxo-1,2-dihydroisoquinoline-7-carboxamide]",67
9,"CC(C)(C)OC(=O)N(CCCn1ccc2ccc(C(=O)NO)cc2c1=O)c1ccncc1 [Compound I-89, tert-butyl {3-[7-[(hydroxyamino)carbonyl]-1-oxoisoquinolin-2(1H)-yl]propyl}pyridin-4-ylcarbamate]",95.6
10,"O=C(NO)c1ccc2ncn(Cc3ccccc3Cl)c(=O)c2c1 [Compound I-63, 3-(2-chlorobenzyl)-N-hydroxy-4-oxo-3,4-dihydroquinazoline-6-carboxamide]",93.2
11,"O=C(NO)c1ccc2ccn(C3CCC3)c(=O)c2c1 [Compound I-64, 2-cyclobutyl-N-hydroxy-1-oxo-1,2-dihydroisoquinoline-7-carboxamide]",93.1

# Results, then the compound that gave them:
row,inhibition at 0.412 µM [%],SMILES
1,96.8,"COc1ccc(OCCn2ccc3ccc(C(=O)NO)cc3c2=O)cc1 [Compound I-257, N-hydroxy-2-[2-(4-methoxyphenoxy)ethyl]-1-oxo-1,2-dihydroisoquinoline-7-carboxamide]"
2,86.9,"COCCOCCn1ccc2ccc(C(=O)NO)cc2c1=O [Compound I-228, N-hydroxy-2-[2-(2-methoxyethoxy)ethyl]-1-oxo-1,2-dihydroisoquinoline-7-carboxamide]"
3,70.9,"O=C(NO)c1ccc2cc[nH]c(=O)c2c1 [Compound I-232, N-hydroxy-1-oxo-1,2-dihydroisoquinoline-7-carboxamide]"
4,56.5,"CS(=O)(=O)c1ccccc1OCc1nc2cc(C(=O)NO)ccc2c(=O)[nH]1 [Compound I-249, N-hydroxy-2-{[2-(methylsulfonyl)phenoxy]methyl}-4-oxo-3,4-dihydroquinazoline-7-carboxamide]"
5,95,"O=C(NO)c1ccc2ccn(Cc3ccccc3CS(=O)(=O)c3ccccc3)c(=O)c2c1 [Compound I-178, N-hydroxy-1-oxo-2-{2-[(phenylsulfonyl)methyl]benzyl}-1,2-dihydroisoquinoline-7-carboxamide]"
6,91.1,"O=C(NO)c1ccc2c(=O)n(CCc3ccccn3)c(-c3ccccc3)nc2c1 [Compound I-263, N-hydroxy-4-oxo-2-phenyl-3-(2-pyridin-2-ylethyl)-3,4-dihydroquinazoline-7-carboxamide]"
7,96.9,"O=C(NO)c1ccc2ccn(CCOc3ccc(-n4ccnc4)cc3)c(=O)c2c1 [Compound I-271, N-hydroxy-2-{2-[4-(1H-imidazol-1-yl)phenoxy]ethyl}-1-oxo-1,2-dihydroisoquinoline-7-carboxamide]"
8,98.7,"O=C(NO)c1ccc2ccn(CCOc3ccccc3Cl)c(=O)c2c1 [Compound I-204, 2-[2-(2-chlorophenoxy)ethyl]-N-hydroxy-1-oxo-1,2-dihydroisoquinoline-7-carboxamide]"
9,93.9,"O=C(NO)c1ccc2ccn(CCOc3cccc(OCc4ccccc4)c3)c(=O)c2c1 [Compound I-258, 2-{2-[3-(benzyloxy)phenoxy]ethyl}-N-hydroxy-1-oxo-1,2-dihydroisoquinoline-7-carboxamide]"
